# Entries after “also recorded” stand apart in the source; their conditions may differ.
# Tests used:
# [1] = system: ACT-mRNA; test: Northern blot of ACT-mRNA, astrocytoma cells; type: cell-based, human; conditions: astrocytoma cells, 16 hours of IL-1 stimulation, 48 hours blot exposure
# Description: Total RNA (10 μg) was extracted from primary astrocytes and astrocytoma cells with a RNA-STAT kit (Tel-Test). RNA samples were denatured in 50% formamide/2.2 M formaldehyde/20 mM MOPS/5 mM sodium acetate/0.5 mM EDTA, pH 7.4, at 60° C. for 10 minutes, electrophoresed on 1.0% agarose-formaldehyde gels, blotted onto Hybond-N filters and immobilized by UV crosslinking and heating filters to 80° C. Filters were prehybridized for 3 hours and hybridized overnight in a solution consisting of 50% formamide, […] denatured salmon sperm DNA, 5×SSC, 0.1% sodium dodecyl sulfate and 5×Denhardt's solution. Following hybridization, filters were washed twice for a total of 1 hour in 2×SSC/0.2% sodium dodecyl sulfate at room temperature and twice each for a total of 1 hour in 0.5×SSC/0.1% sodium dodecyl sulfate at 55° C. Equal loading was verified by ethidium bromide staining, non-specific hybridization of the ACT probe to the 28S rRNA, and by standardized hybridization to the GAPDH cDNA probe as an internal standard. The APP cDNA probe corresponded to the unique internal 1 kb fragment gel purified from the 3 kb APP cDNA (Kang et al. Nature 325: 733 (1987)), the ACT cRNA probe to a PstI/SacI fragment (536-943) in the human ACT cDNA (Chandra, et al., Biochemistry 22: 5055 (1983)) and the GAPDH probe to the human GAPDH gene (Tokunaga, et al., Cancer Res. 47: 5616 (1987)).
# [2] = system: L-ferritin subunit synthesis; test: L-ferritin subunit synthesis, [35S]-methionine labeling and immunoprecipitation, primary astrocytes; type: cell-based; conditions: primary human fetal astrocytes, 0.5 ng/ml, 16 hours
# [3] = system: APP protein at the site of the lesion; conditions: injected into rat cerebral cortex; cited from earlier work
# [4] = system: H-ferritin subunit synthesis; test: H-ferritin subunit synthesis, [35S]-methionine labeling and immunoprecipitation, primary astrocytes; type: cell-based; conditions: primary human fetal astrocytes, 0.5 ng/ml, 16 hours
substance,measurement,setting,value
interleukin-1 [IL-1],induction in steady-state levels of ACT-mRNA,[1],6 fold
same,up regulation in L-ferritin subunit synthesis,[2],25%
same,steady-state levels of APP protein at the site of the lesion,[3],increase the steady-state level of APP-protein; also recorded: increases the steady-state levels of APP protein
same,up regulation in H-ferritin subunit synthesis,[4],4 fold

# Source: patent US6849405B2, “Translation enhancer element of the human amyloid precursor protein gene” (The Brigham and Women's Hospital, Inc., priority 1997, dated 2005)
